Experiments:
phospho-Smad2 = assay: Phospho-Smad2 in adult DRG after intraganglionic injection; format: in vivo, rat; details: 2 μl of 5-10 mM injected into adult DRG (L4 and L5); pilot experiments
[1] = system: adult DRG neurons (L4 and L5); assay: Axonal growth ability of injected adult DRG neurons cultured in vitro for 12 hrs; format: in vivo, rat; details: injected into adult DRG; 3 or 7 days post-injection, cultured 12 hrs; vs saline
Procedure: Average axon length of the longest neurite from every individual neuron was measured and quantified as described before (Koprivica et al., 2005; Wang et al., 2002a; Wang et al., 2002b). Branching frequency was measured by dividing the number of branches from the longest neurite by the length of the neurite, as previously described (Smith and Skene, 1997). All measurements were made from at least 150 neurons per condition, from duplicate wells and from three independent experiments.
We next examined whether inhibiting this signaling pathway could enhance the intrinsic growth state of adult DRG neurons by pharmacological approaches. We injected SB505124 or the same volume of saline into the adult DRG (L4 and L5). 3 or 7 days post-injection, the axonal growth ability of injected DRG neurons were assayed by culturing DRG neurons in vitro for 12 hrs.

Smad2/3 signaling [2] = assay: Directed forepaw reaching (DFR) task after dorsal corticospinal tract transection; format: in vivo, Sprague Dawley rats; details: rats, sixth week after surgery; SB-505124 30 mg/kg tail vein or siRNA 10 μl intrathecal, days 1-7; vs lesion and vehicle groups
Source text: Adult Sprague Dawley rats (300-400 gm) are trained and tested in a directed forepaw reaching (DFR) apparatus which measures grasping ability. The apparatus, which is described in detail by Nash et al., supra, is a box that consists of two compartments: a main compartment for housing the rats and a minor compartment for the food, separated by a Plexiglas divider. The minor compartment is subdivided into slots of equal size, each holding a pellet of food. Between the slots and the Plexiglas there is a gap. The apparatus is configured such that in order to retrieve a food pellet from a slot, a rat must extend a forelimb through a hole in the Plexiglas divider, and grasp the pellet and lift it over the gap and out of the slot. If the rat merely rakes the food in the slot towards the hole in the Plexiglas, the food will drop from the slot into the gap and fall to the floor of the minor compartment. The floor of the minor compartment can be configured to allow a rat to retrieve food that drops or it can be lowered to prevent the rat from reaching dropped food. Prior to inducing spinal injury, the rats are food restricted, receiving ˜3 gm food/100 gm body weight per day, before and throughout training and testing. Weight is monitored to ensure that rats are reduced to no less than 80% of their original body weight at any time. […]

Smad2/3 signaling [3] = assay: Count of BDT-labeled CST axons caudal to spinal cord lesion; format: in vivo, Sprague Dawley rats; details: rats, seven weeks and 3 d after lesioning; 1-19 mm caudal to lesion; vs lesioned control rats
Source text: Rats are randomly assigned to control or experimental groups. Sham control rats undergo surgical procedure without lesioning, and with or without placement of an intrathecal catheter. Lesioned control rats receive no treatment, tail injection vehicle only treatment, intrathecal catheter only treatment, intrathecal catheter with vehicle only treatment, or intrathecal catheter and mismatch siRNA treatment. After anesthesia with isoflurane, the rats are placed on an operating board in such a way as to bend the cervical spinal cord for maximum exposure. A laminectomy is performed exposing the dorsum of the spinal cord between C2 and C4. The dorsal columns are identified bilaterally, and, in all rats except for those in the sham group, a suture needle is passed through the spinal cord, isolating the dorsal funiculus. The suture thread is gently lifted, and a pair of iridectomy scissors is used to bilaterally transect the dorsal funiculus, thereby transecting the dorsal corticospinal tract (CST). […]
Seven weeks after injury, rats are prepared for injection of biotin dextran tetramethylrhodamine (BDT; Molecular Probes). […] After anesthesia with isoflurane (5%), rats are placed in a stereotaxic instrument, and a total of six stereotaxically determined holes (0.9 mm diameter) are drilled in the skull over the primary motor cortices associated with the forelimbs. […]

[4] = system: dissociated adult rat DRG neurons; assay: Axonal growth of adult rat DRG neurons overexpressing Smad7; format: cell-based; details: Smad7 overexpression vs control GFP
Procedure: (§1) For overexpression of Smad7 in DRGs, adult rat DRG neurons were co-transfected by electroporation with 2 μg pEGFP (Invitrogen) and 5 μg of an expression construct for FLAG-tagged Smad7 (Nakao et al., 1997) or control plasmid using the Rat Neuron Nucleofector Kit (Amaxa) following manufacturer's protocol. After brief purification, the neurons were plated at a density of 200-500 cells/mm2. For overexpression of Smad7 in cerebellar granule neurons (CGN), CGNs from P6 Sprague-Dawley rat pups were dissected, plated onto poly-D-lysine (20 μg/ml), and cultured in Basal Medium Eagle (Gibco) supplemented with 10% calf serum, 25 mM KCl, 2 mM L-glutamine, penicillin and streptomycin, at a density of 2.5×10^3 cells/mm2. CGNs were co-transfected with pEGFP and Smad7 or control plasmid at a 1 to 3 ratio using a modified calcium phosphate transfection method as described before (Konishi et al., 2004). […]
(§2) Average axon length of the longest neurite from every individual neuron was measured and quantified as described before (Koprivica et al., 2005; Wang et al., 2002a; Wang et al., 2002b). Branching frequency was measured by dividing the number of branches from the longest neurite by the length of the neurite, as previously described (Smith and Skene, 1997). […]

[5] = system: cerebellar granule neurons (CGNs) from postnatal rats; assay: Axonal growth of cerebellar granule neurons overexpressing Smad7; format: cell-based, rat; details: Smad7 expression, effect became stronger with time
Procedure: as §1, §2

embryonic DRG neurons = assay: Effect of activin A on axonal growth ability of embryonic DRG neurons (prior experiments); format: cell-based
adult DRG neurons = assay: Effect of activin A on axonal elongation of adult DRG neurons (prior experiments); format: cell-based

Molecule: Cc1cccc(-c2[nH]c(C(C)(C)C)nc2-c2ccc3c(c2)OCO3)n1.Cl [SB-505124, 2-(5-benzo[1,3]dioxol-5-yl-2-tert-butyl-3H-imidazol-4-yl)-6-methylpyridinehydrochloride]
- phospho-Smad2 in the injected DRGs (phospho-Smad2): significant reduction of phospho-Smad2
- axonal elongation of DRG neurons [1]: significantly increased axonal elongation
- branching frequency of DRG neurons [1]: reduced branching frequency
- DFR task performance (functional recovery after spinal injury) (Smad2/3 signaling [2]): Significantly better performance
- number of BDT-labeled axons caudal to the lesion (Smad2/3 signaling [3]): Significantly more labeled axons at each distance

B1: Smad7: FLAG-tagged Smad7 overexpressed from an expression construct; competes with Smad2/3 for binding to activated ALK (protein, UniProt O15105 1-426, looked up)
Mothers against …: MFRTKRSALVRRLWRSRAPGGEDEEEGAGGGGGGGELRGEGATDSRAHGAGGGGPGRAGCCLGKAVRGAKGHHHPHPPAAGAGAAGGAEADLKALTHSVLKKLKERQLELLLQAVESRGGTRTACLLLPGRLDCRLGPGAPAGAQPAQPPSSYSLPLLLCKVFRWPDLRHSSEVKRLCCCESYGKINPELVCCNPHHLSRLCELESPPPPYSRYPMDFLKPTADCPDAVPSSAETGGTNYLAPGGLSDSQLLLEPGDRSHWCVVAYWEEKTRVGRLYCVQEPSLDIFYDLPQGNGFCLGQLNSDNKSQLVQKVRSKIGCGIQLTREVDGVWVYNRSSYPIFIKSATLDNPDSRTLLVHKVFPGFSIKAFDYEKAYSLQRPNDHEFMQQPWTGFTVQISFVKGWGQCYTRQFISSCPCWLEVIFNSR
modifications: FLAG tag
- rate of axonal growth [4]: significantly enhanced the rate of axonal growth
- axonal growth rate [5]: dramatically increase axonal growth rate

B2: activin A: TGFβ family member produced in skin (protein, UniProt P08476 311-426, looked up)
Inhibin beta A chain: GLECDGKVNICCKKQFFVSFKDIGWNDWIIAPSGYHANYCEGECPSHIAGTSGSSLSFHSTVINHYRMRGHSPFANLKSCCVPTKLRPMSMLYYDDGQNIIKKDIQNMIVEECGCS
- axonal growth ability (embryonic DRG neurons): triggers a decline in axonal growth ability
- axonal elongation ability (adult DRG neurons): reduces axonal elongation ability
